Among the data in ChEMBL document CHEMBL1821574, “Structure-activity relationships of 4-position diamine quinoline methanols as intermittent preventative treatment (IPT) against Plasmodium falciparum” (J Med Chem, 2011) are IC90 and Papp A→B values, retold here.

In data set [1] the test system is Plasmodium falciparum. The data set is described as follows: Antimalarial activity against chloroquine-sensitive and mefloquine-resistant Plasmodium falciparum D6 assessed as inhibition of [3H]hypoxanthine incorporation by liquid scintillation spectrometry. It counts as functional.
The subject of data set [2] is Plasmodium falciparum. Briefly: Antimalarial activity against chloroquine, mefloquine and pyrimethamine-resistant Plasmodium falciparum TM91C235 assessed as inhibition of [3H]hypoxanthine incorporation by liquid scintillation spectrometry. Type of data set: functional.
Data set [3] relates to Plasmodium falciparum. The data set is described as follows: Antimalarial activity against chloroquine, mefloquine and pyrimethamine-resistant Plasmodium falciparum TM90C2A assessed as inhibition of [3H]hypoxanthine incorporation by liquid scintillation spectrometry. Type of data set: functional.
Data set [4] deals with Plasmodium falciparum. The data set is described as follows: Antimalarial activity against chloroquine-resistant and mefloquine-sensitive Plasmodium falciparum W2 assessed as inhibition of [3H]hypoxanthine incorporation by liquid scintillation spectrometry. Type of data set: functional.
The nature of data set [5]: Apparent permeability from apical to basolateral side of dog MDCK cells at 5 uM after 2 hrs by LC/MS/MS analysis. Type of data set: ADME, cell-based, Canis lupus familiaris.
In data set [6] the test system is Plasmodium falciparum. Briefly: Antimalarial activity against chloroquine-sensitive and mefloquine-resistant Plasmodium falciparum D6 by SYBR Green I-based fluorescence assay. It counts as functional.
In data set [7] the test system is Plasmodium falciparum. Briefly: Antimalarial activity against chloroquine, mefloquine and pyrimethamine-resistant Plasmodium falciparum TM91C235 by SYBR Green I-based fluorescence assay. It counts as functional.

≈ marks a conversion by molar mass, not a printed value. A value given as a limit tells only on which side of the number the result lay.

As to `CNCCNCC(O)c1cc(C(F)(F)F)nc2c(C(F)(F)F)cccc12` (centres undefined), the IC90 in the data set with Plasmodium falciparum [1] was greater than 0.5 µg/mL; with Plasmodium falciparum [2] it was greater than 0.5 µg/mL; with Plasmodium falciparum [3], greater than 0.5 µg/mL; with Plasmodium falciparum [4], 0.481 µg/mL (≈ 1.26 µM).
As to `CC(C)(CN1CC2CCC1C2)NCC(O)c1cc(C(F)(F)F)nc2c(C(F)(F)F)cccc12` (centres undefined), in data set [5], the Papp A→B at 2 h, 5 µM turned out to be 25.1 ×10⁻⁶ cm/s. Besides, the figures for the 90% effect concentration (IC90) in the data set on Plasmodium falciparum [6] and in the data set on Plasmodium falciparum [7] were 0.093 µg/mL (≈ 0.196 µM) and 0.16 µg/mL (≈ 0.337 µM), respectively.
On to `CN(CCN)CC(O)c1cc(C(F)(F)F)nc2c(C(F)(F)F)cccc12` (centres undefined), for which, in data set [5], the Papp A→B at 2 h, 5 µM is 4.9 ×10⁻⁶ cm/s. The IC90 turned out to be 0.344 µg/mL (≈ 0.902 µM) in the data set on Plasmodium falciparum [6] and 0.695 µg/mL (≈ 1.82 µM) in the data set with Plasmodium falciparum [7].
The corresponding values for `OC(CNCCN(C1CCCCC1)C1CCCCC1)c1cc(C(F)(F)F)nc2c(C(F)(F)F)cccc12` (centres undefined) are 24.7 ×10⁻⁶ cm/s, 0.0093 µg/mL (≈ 0.0175 µM) and 0.022 µg/mL (≈ 0.0414 µM).
As to `NCCNCC(O)c1cc(C(F)(F)F)nc2c(C(F)(F)F)cccc12` (centres undefined), the Papp A→B at 2 h, 5 µM in data set [5] was 3.1 ×10⁻⁶ cm/s. Moreover, the IC90 in the data set with Plasmodium falciparum [6] turned out to be 0.988 µg/mL (≈ 2.69 µM); with Plasmodium falciparum [7], 1.14 µg/mL (≈ 3.11 µM).
Turning to `CN1CCCC(C(NCC(O)c2cc(C(F)(F)F)nc3c(C(F)(F)F)cccc23)C2CCCN(C)C2)C1` (centres undefined), the 90% effect concentration (IC90) was determined as 0.746 µg/mL (≈ 1.4 µM) in the data set on Plasmodium falciparum [1], 0.903 µg/mL (≈ 1.7 µM) in the data set with Plasmodium falciparum [2], 0.983 µg/mL (≈ 1.85 µM) in the data set on Plasmodium falciparum [3] and 0.28 µg/mL (≈ 0.526 µM) in the data set on Plasmodium falciparum [4].
On the same counts, the results for `O=C1NCCC1N(CCNCC(O)c1cc(C(F)(F)F)nc2c(C(F)(F)F)cccc12)C1CCNC1=O` (centres undefined) are greater than 0.5 µg/mL, greater than 0.5 µg/mL, greater than 0.5 µg/mL and 0.487 µg/mL (≈ 0.913 µM).
For the compound `CC(C)NCCNCC(O)c1cc(C(F)(F)F)nc2c(C(F)(F)F)cccc12` (centres undefined), the Papp A→B at 2 h, 5 µM in data set [5] came to 12.7 ×10⁻⁶ cm/s. Further, the IC90 with Plasmodium falciparum [6] turned out to be 0.012 µg/mL (≈ 0.0293 µM); with Plasmodium falciparum [7], 0.032 µg/mL (≈ 0.0782 µM).
`OC(NC[C@H]1CCCN1)c1cc(C(F)(F)F)nc2c(C(F)(F)F)cccc12` (some centres undefined): the IC90 in the data set on Plasmodium falciparum [1] was found to be 0.04 µg/mL (≈ 0.102 µM); in the data set on Plasmodium falciparum [2], 0.074 µg/mL (≈ 0.188 µM); in the data set on Plasmodium falciparum [3], 0.054 µg/mL (≈ 0.137 µM); in the data set with Plasmodium falciparum [4], 0.008 µg/mL (≈ 0.0203 µM).
For the compound `CC(CNC1CCCCC1)NCC(O)c1cc(C(F)(F)F)nc2c(C(F)(F)F)cccc12` (centres undefined), the apical-to-basolateral permeability (Papp A→B) at 2 h, 5 µM in data set [5] was determined as 9.6 ×10⁻⁶ cm/s. In addition, the concentration for an effect of 90% (IC90) in the data set on Plasmodium falciparum [6] was found to be 0.026 µg/mL (≈ 0.0561 µM); with Plasmodium falciparum [7], 0.082 µg/mL (≈ 0.177 µM).
As to `OC(NC[C@]12CC[C@@H](C1)NC2)c1cc(C(F)(F)F)nc2c(C(F)(F)F)cccc12` (some centres undefined), the IC90 with Plasmodium falciparum [1] worked out at 0.075 µg/mL (≈ 0.179 µM); with Plasmodium falciparum [2] it was 0.26 µg/mL (≈ 0.62 µM); in the data set with Plasmodium falciparum [4], 0.275 µg/mL (≈ 0.656 µM).
Take `OC(CNCC1CCNC1)c1cc(C(F)(F)F)nc2c(C(F)(F)F)cccc12` (centres undefined): the IC90 came out at 3.1 µg/mL (≈ 7.61 µM) with Plasmodium falciparum [1], 4.27 µg/mL (≈ 10.5 µM) in the data set with Plasmodium falciparum [2], 4.37 µg/mL (≈ 10.7 µM) in the data set on Plasmodium falciparum [3] and 2.04 µg/mL (≈ 5.01 µM) with Plasmodium falciparum [4].
Consider `OC(CNCCNC1CCCC1)c1cc(C(F)(F)F)nc2c(C(F)(F)F)cccc12` (centres undefined), for which, in data set [5], the Papp A→B at 2 h, 5 µM came to 3 ×10⁻⁶ cm/s. In addition, the concentration for an effect of 90% (IC90) with Plasmodium falciparum [6] amounted to 0.11 µg/mL (≈ 0.253 µM); in the data set on Plasmodium falciparum [7], 0.198 µg/mL (≈ 0.455 µM).
Regarding `CNCCN(CC(O)c1cc(C(F)(F)F)nc2c(C(F)(F)F)cccc12)CC(O)c1cc(C(F)(F)F)nc2c(C(F)(F)F)cccc12` (centres undefined), in data set [5], the apical-to-basolateral permeability (Papp A→B) at 2 h, 5 µM worked out at 0.3 ×10⁻⁶ cm/s. Further, the 90% effect concentration (IC90) with Plasmodium falciparum [6] stood at 0.022 µg/mL (≈ 0.032 µM); in the data set on Plasmodium falciparum [7], 0.03 µg/mL (≈ 0.0436 µM).
As for `CN(CCN(C)CC(O)c1cc(C(F)(F)F)nc2c(C(F)(F)F)cccc12)CC(O)c1cc(C(F)(F)F)nc2c(C(F)(F)F)cccc12` (centres undefined), the 90% effect concentration (IC90) in the data set with Plasmodium falciparum [6] was found to be 0.329 µg/mL (≈ 0.468 µM); in the data set on Plasmodium falciparum [7], 0.375 µg/mL (≈ 0.534 µM).
As for `CC1C(NCC(O)c2cc(C(F)(F)F)nc3c(C(F)(F)F)cccc23)CC2CC1C2(C)C` (centres undefined), the results for the 90% effect concentration (IC90) in the data set with Plasmodium falciparum [1], in the data set on Plasmodium falciparum [2] and in the data set with Plasmodium falciparum [3] were 0.014 µg/mL (≈ 0.0304 µM), 0.019 µg/mL (≈ 0.0413 µM) and 0.016 µg/mL (≈ 0.0347 µM), respectively.
For the compound `Cc1ccc(S(=O)(=O)N(CCN2CCCCC2)CC(O)c2cc(C(F)(F)F)nc3c(C(F)(F)F)cccc23)cc1` (centres undefined), the apparent permeability from apical to basolateral (Papp A→B) at 2 h, 5 µM in data set [5] turned out to be 2.5 ×10⁻⁶ cm/s. Moreover, the values for the IC90 in the data set with Plasmodium falciparum [6] and in the data set with Plasmodium falciparum [7] were 0.071 µg/mL (≈ 0.12 µM) and 0.214 µg/mL (≈ 0.363 µM), respectively.
In the case of `OC(CNCCNCc1ccccc1)c1cc(C(F)(F)F)nc2c(C(F)(F)F)cccc12` (centres undefined), the Papp A→B at 2 h, 5 µM in data set [5] came to 8.5 ×10⁻⁶ cm/s. For the same compound, the concentration for an effect of 90% (IC90) is 0.025 µg/mL (≈ 0.0547 µM) with Plasmodium falciparum [1], 0.029 µg/mL (≈ 0.0634 µM) with Plasmodium falciparum [6], 0.006 µg/mL (≈ 0.0131 µM) with Plasmodium falciparum [4] and 0.04 µg/mL (≈ 0.0874 µM) with Plasmodium falciparum [7].
In the case of `OC(CNCCNc1ccccc1)c1cc(C(F)(F)F)nc2c(C(F)(F)F)cccc12` (centres undefined), the Papp A→B at 2 h, 5 µM in data set [5] was found to be 13 ×10⁻⁶ cm/s. Moreover, the concentration for an effect of 90% (IC90) worked out at 0.028 µg/mL (≈ 0.0631 µM) with Plasmodium falciparum [6] and 0.07 µg/mL (≈ 0.158 µM) in the data set with Plasmodium falciparum [7].
Take `OC(CNC[C@@]12CCC[C@@H]1CNC2)c1cc(C(F)(F)F)nc2c(C(F)(F)F)cccc12` (some centres undefined): the concentration for an effect of 90% (IC90) in the data set with Plasmodium falciparum [1] turned out to be 0.165 µg/mL (≈ 0.369 µM); in the data set on Plasmodium falciparum [2], 0.433 µg/mL (≈ 0.968 µM); with Plasmodium falciparum [3], 0.358 µg/mL (≈ 0.8 µM); in the data set on Plasmodium falciparum [4], 0.885 µg/mL (≈ 1.98 µM).
`NCCCNCCNCC(O)c1cc(C(F)(F)F)nc2c(C(F)(F)F)cccc12` (centres undefined): the concentration for an effect of 90% (IC90) was 0.38 µg/mL (≈ 0.895 µM) in the data set on Plasmodium falciparum [1], greater than 0.5 µg/mL with Plasmodium falciparum [2], greater than 0.5 µg/mL in the data set with Plasmodium falciparum [3] and greater than 0.5 µg/mL with Plasmodium falciparum [4].
Consider `OC(CNCCNC1CC1)c1cc(C(F)(F)F)nc2c(C(F)(F)F)cccc12` (centres undefined), for which the Papp A→B at 2 h, 5 µM in data set [5] was 2.8 ×10⁻⁶ cm/s. In addition, the concentration for an effect of 90% (IC90) in the data set with Plasmodium falciparum [6] turned out to be 0.041 µg/mL (≈ 0.101 µM); in the data set on Plasmodium falciparum [7], 0.128 µg/mL (≈ 0.314 µM).
